In patent publication US12129254B1, “Pyrimido[6′,1′:2,3]imidazo[4,5-b][1,6]naphthyridine compounds as CK2 inhibitors” (KING FAISAL UNIVERSITY, priority 2023, dated 2024):

How the values were obtained:
H1299 (lung) = assay: In vitro cytotoxic activity (MTT) assay, H1299; format: cell-based; details: Homo sapiens, NCI-H1299; H1299 (lung) cells, exposed for 96 hours; read-out: IC50, concentration of compound eliciting a 50% inhibition of cell proliferation
Method: (§1) Compounds 1-16 were screened for their in vitro cytotoxic activity utilizing a 3-(4,5-dimethyl-thiazol-2-yl)-2,5-diphenyltetrazolium bromide (MTT) assay against selected cancer human cell lines consisting of PC3 (prostate), HCT116 (colon), A375 (melanoma), H1299 (lung), MIAPaCa-2 (pancreas), HL60 (leukemia), MCF7 (breast), MDA-MB-231 (breast) (T. Mosmann, J. Immunol. Meth., 1983, 65, 55-63). The cells were cultured at 37° C. in RMPI1640 medium supplemented with 10% fetal bovine serum, 50 IU/mL penicillin, and 50 μg/mL streptomycin in a 5% CO2 incubator. All cells were sub-cultured 3 times/week by trypsinisation. Viable cells were seeded and allowed to adhere for 12 h before a test drug was added in 96-well plates at an initial density of 1.0×10^5 cells/mL. Tumour cell lines were separately exposed to various concentrations of the tested compounds followed by incubation at a temperature of 37° C. during 96 h inside a medium of fresh RMPI 1640. Cells were subsequently incubated at 37° C. using MTT at 0.5 mg/mL during 4 h. After removal of supernatant, formazan crystals were dissolved in isopropanol and the optical density was measured at 570 nm. CX-4945 was used as a positive control.

MIAPaCa-2 (pancreas) = assay: In vitro cytotoxic activity (MTT) assay, MIAPaCa-2; format: cell-based; details: Homo sapiens, MIA PaCa-2; MIAPaCa-2 (pancreas) cells, exposed for 96 hours; read-out: IC50, concentration of compound eliciting a 50% inhibition of cell proliferation
Method: as §1

MDA-MB-231 (breast) = assay: In vitro cytotoxic activity (MTT) assay, MDA-MB-231; format: cell-based; details: Homo sapiens; MDA-MB-231 (breast) cells, exposed for 96 hours; read-out: IC50, concentration of compound eliciting a 50% inhibition of cell proliferation
Method: as §1

MCF7 (breast) = assay: In vitro cytotoxic activity (MTT) assay, MCF7; format: cell-based; details: Homo sapiens; MCF7 (breast) cells, exposed for 96 hours; read-out: IC50, concentration of compound eliciting a 50% inhibition of cell proliferation
Method: as §1

A375 (melanoma) = assay: In vitro cytotoxic activity (MTT) assay, A375; format: cell-based; details: Homo sapiens, A-375; A375 (melanoma) cells, exposed for 96 hours; read-out: IC50, concentration of compound eliciting a 50% inhibition of cell proliferation
Method: as §1

HCT116 (colon) = assay: In vitro cytotoxic activity (MTT) assay, HCT116; format: cell-based; details: Homo sapiens, HCT-116; HCT116 (colon) cells, exposed for 96 hours; read-out: IC50, concentration of compound eliciting a 50% inhibition of cell proliferation
Method: as §1

HL60 (leukemia) = assay: In vitro cytotoxic activity (MTT) assay, HL60; format: cell-based; details: Homo sapiens, HL-60; HL60 (leukemia) cells, exposed for 96 hours; read-out: IC50, concentration of compound eliciting a 50% inhibition of cell proliferation
Method: as §1

PC3 (prostate) = assay: In vitro cytotoxic activity (MTT) assay, PC3; format: cell-based; details: Homo sapiens, Prostate cell; PC3 (prostate) cells, exposed for 96 hours; read-out: IC50, concentration of compound eliciting a 50% inhibition of cell proliferation
Method: as §1

[1] = target: T1, recombinant human CK2 (RRββ-holoenzyme) (Homo sapiens, UniProt P68400); assay: CK2 Kinase Assay (radiometric, [γ-33P] ATP); format: biochemical; details: final ATP concentration 15 μM, 10 min at 30° C., eight concentrations; read-out: protein kinase CK2 IC50
T1 construct: purchased Millipore
Method: CK2 Kinase Assay was conducted using the protocol as described in Pierre F. et al; J. Med. Chem. 2011, 54, 635-654. The tested compounds in aqueous solution were added at a volume of 10 μL to a reaction mixture comprising 10 μL of assay dilution buffer (ADB; 20 mM MOPS, pH 7.2, 25 mM β-glycerol phosphate, 5 mM EGTA, 1 mM sodium orthovanadate, and 1 mM dithiothreitol), 10 μL of substrate peptide (RRRDDDSDDD, dissolved in ADB at a concentration of 1 mM), 10 μL of recombinant human CK2 (RRββ-holoenzyme, 25 ng dissolved in ADB; Millipore). Reactions were initiated by the addition of 10 μL of ATP solution (90% 75 mMMgCl2, 75 μM ATP (final ATP concentration: 15 μM) dissolved in ADB; 10% [γ-33P] ATP (stock 1 mCi/100 μL; 3000 Ci/mmol (Perkin-Elmer) and maintained for 10 min at 30° C. The reactions were quenched with 100 μL of 0.75% phosphoric acid and then transferred to and filtered through a phosphor cellulose filter plate (Millipore). After washing each well five times with 0.75% phosphoric acid, the plate was dried under vacuum for 5 min and, following the addition of 15 μL of scintillation fluid to each well, the residual radioactivity was measured using a Wallac luminescence counter. The IC50 values were derived from eight concentrations of test inhibitors.

T1 sequence (P68400 whole entry): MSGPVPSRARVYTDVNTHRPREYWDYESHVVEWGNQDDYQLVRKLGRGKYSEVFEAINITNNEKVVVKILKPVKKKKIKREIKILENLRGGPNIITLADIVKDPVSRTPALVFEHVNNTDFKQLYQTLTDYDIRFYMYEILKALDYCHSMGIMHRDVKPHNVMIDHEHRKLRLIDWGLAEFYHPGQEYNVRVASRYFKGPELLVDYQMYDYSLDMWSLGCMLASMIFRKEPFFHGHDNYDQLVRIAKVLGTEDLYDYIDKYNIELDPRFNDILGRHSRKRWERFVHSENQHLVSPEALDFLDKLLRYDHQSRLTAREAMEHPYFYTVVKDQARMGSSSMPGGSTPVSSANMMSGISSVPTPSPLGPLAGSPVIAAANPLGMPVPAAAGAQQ
T1 sequence (P67870 whole entry partner): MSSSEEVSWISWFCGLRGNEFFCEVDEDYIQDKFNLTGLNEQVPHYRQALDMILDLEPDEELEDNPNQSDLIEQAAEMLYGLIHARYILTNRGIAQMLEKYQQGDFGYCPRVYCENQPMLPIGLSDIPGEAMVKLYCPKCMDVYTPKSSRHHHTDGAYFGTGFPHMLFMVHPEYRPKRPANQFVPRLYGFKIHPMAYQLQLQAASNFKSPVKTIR

Structure (SMILES): Clc1cccc(Nc2c3cnccc3nc3c2nc2ccncn23)c1 [Compound 1, N-(3-chlorophenyl)pyrimido[6′,1′:2,3]imidazo[4,5-b][1,6]naphthyridin-12-amine]
- IC50 (H1299 (lung)): 2500 nM
- IC50 (MIAPaCa-2 (pancreas)): 1400 nM
- IC50 (MDA-MB-231 (breast)): 4.7 µM
- IC50 (MCF7 (breast)): 5.9 µM
- IC50 (A375 (melanoma)): 3000 nM
- IC50 (HCT116 (colon)): 1700 nM
- IC50 (HL60 (leukemia)): 3.1 µM
- IC50 (PC3 (prostate)): 2200 nM
- IC50 [1]: 138 nM
